*: point of attachment. Cbz = O=C(OCc1ccccc1)*; CH2F = FC*
What was measured:
pro-CASP10 = pro-CASP10 (Homo sapiens, UniProt Q92851); experiment: Blockade of probe 61 labeling of pro-CASP10; type: binding; settings: 300 nM protein in MDA-MB-231 lysate; read-out: apparent IC50 for blockade of 61 labeling of pro-CASP10
pro-CASP8 = target: T1, pro-CASP8 (Homo sapiens, UniProt Q14790, D374A/D384A); experiment: Click probe 61 labeling of pro-CASP8 and its competition; type: binding; settings: 300 nM protein in MDA-MB-231 lysate; read-out: apparent IC50 for blockade of 61 labeling of pro-CASP8
T1 construct: a truncated CASP8 (residues 217-479) without the CARD domain; His6 (C); made in house; host or cells: E. coli BL21(DE3)pLysS
T1 sequence (Q14790 217-479 D374A/D384A): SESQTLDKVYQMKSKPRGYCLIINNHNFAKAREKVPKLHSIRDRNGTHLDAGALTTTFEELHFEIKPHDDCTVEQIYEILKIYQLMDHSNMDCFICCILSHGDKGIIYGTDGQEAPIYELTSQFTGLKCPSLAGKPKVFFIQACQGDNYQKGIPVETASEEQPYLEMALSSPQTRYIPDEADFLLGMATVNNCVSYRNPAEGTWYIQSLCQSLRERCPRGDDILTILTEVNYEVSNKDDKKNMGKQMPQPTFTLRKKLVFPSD

primary human T cells = experiment: FasL-induced apoptosis in activated primary T cells; type: cell-based; settings: anti-CD3, anti-CD28-activated primary human T cells
Jurkat cells [1] = experiment: FasL-induced (extrinsic) apoptosis, CellTiter-Glo viability; type: cell-based, human
CASP8 = target: T2, CASP8 (Homo sapiens, UniProt Q14790); experiment: Quantitative proteomics (ABPP-SILAC) with probe 61 in cells; type: cell-based; settings: primary human T cells and Jurkat cells
T2 construct: caspases measured by quantitative proteomics in Jurkat cells treated with 7, 63-R, or 62 followed by probe 61; endogenous in cells; host or cells: Jurkat cells (SILAC), treated in situ
T2 sequence (Q14790 217-479): as the sequence (Q14790 217-479 D374A/D384A) above, with A158D, A168D counted along it

active CASP10 = target: T3, active CASP10 (Homo sapiens, UniProt Q92851); experiment: Active CASP10 activity assay (AEVD-AMC substrate); type: biochemical; settings: fragments 25 μM; DEVD-CHO 20 μM
T3 sequence (Q92851 220-415 limits assumed): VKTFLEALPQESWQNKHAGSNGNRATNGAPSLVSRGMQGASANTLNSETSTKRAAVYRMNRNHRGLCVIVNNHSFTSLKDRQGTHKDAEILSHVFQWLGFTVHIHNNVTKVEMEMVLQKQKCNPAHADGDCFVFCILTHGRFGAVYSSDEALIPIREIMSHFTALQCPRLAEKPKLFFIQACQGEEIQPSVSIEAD
T3 sequence (Q92851 416-521 limits assumed): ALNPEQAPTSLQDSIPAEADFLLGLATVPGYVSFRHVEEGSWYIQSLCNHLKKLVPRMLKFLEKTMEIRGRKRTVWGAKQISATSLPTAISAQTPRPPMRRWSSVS

active CASP8 [2] = target: T4, active CASP8 (Homo sapiens, UniProt Q14790); experiment: Rho-DEVD-AOMK probe labeling of active CASP8; settings: 7 50 μM; Ac-DEVD-CHO 20 μM
T4 sequence (Q14790 217-374 limits assumed): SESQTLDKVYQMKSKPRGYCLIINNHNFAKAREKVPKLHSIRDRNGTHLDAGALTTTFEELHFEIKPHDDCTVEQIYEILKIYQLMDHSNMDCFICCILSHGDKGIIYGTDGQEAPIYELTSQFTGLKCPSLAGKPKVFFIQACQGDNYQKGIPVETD
T4 sequence (Q14790 385-479 limits assumed): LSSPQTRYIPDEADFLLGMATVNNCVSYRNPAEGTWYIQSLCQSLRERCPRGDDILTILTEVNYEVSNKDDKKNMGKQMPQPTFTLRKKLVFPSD

active CASP8 [3] = target: T4, active CASP8; experiment: CASP8 in vitro activity assay (substrate); type: biochemical; set-up: recombinant, purified active-CASP8 and active-CASP3 added to MDA-MB-231 cell lysates; His6 (C); made in house; host or cells: E. coli BL21(DE3)pLysS; settings: fragments 100 μM; DEVD-CHO 20 μM
Experimental: Caspase 3 and 8 assays were conducted with CASP8 activity assay kit (BioVision, K112-100) and Caspase 3 activity assay kit (Invitrogen, EnzChek® Caspase-3 Assay Kit), following the manufacturer's instructions. Briefly, recombinant Caspase 3 (10 μM) was added to soluble Ramos lysates (1 mg/mL) to a 100 nM final concentration of protease. Caspase 8 (30 μM) was added to soluble Ramos lysates to a 1 μM final concentration of protease. In triplicate, 50 μL lysate was treated with either DMSO, DEVD-CHO (“DEVD” disclosed as SEQ ID NO: 857) (20 μM) or the indicated compounds (100 μM) for 1 h, following which 50 μL of 2× reaction buffer containing 10 mM DTT and 5 μL substrate (4 mM stock in DMSO of IETD-AFC (“IETD” disclosed as SEQ ID NO: 858) for CASP8; 10 mM stock in DMSO of DEVD-AMC (“DEVD” disclosed as SEQ ID NO: 857) for CASP3) was added to each well and the samples were incubated at ambient temperature for 2 h. Caspase activity was measured from the increase in fluorescence (excitation 380 nm emission 460 nm). Experiments were performed in triplicate. Background was calculated from samples lacking the recombinant caspase.

Jurkat cells [4] = experiment: Staurosporine-induced (intrinsic) apoptosis, CellTiter-Glo viability; type: cell-based, human; settings: 30 μM (VAD-FMK 100 μM), 30 min before STS, 6 h
Experimental: 4 mL of Jurkat cells in RPMI (1.5 million cells/mL) were treated with the indicated compound at 30 μM for 30 min (50 mM stock solution in DMSO). Z-VAD-FMK (EMD Millipore Biosciences, 627610) and was used at a final concentration of 100 μM. After pre-incubation, FASL (4 μL of […] stock solution of SuperFasLigandm in water, final concentration=100 ng/mL, Enzo life Sciences) or staurosporine (8 μL of 1 mM stock solution in DMSO, final concentration=2 μM, Fisher Scientific, 50664333). […] The gels were transferred to nitrocellulose membranes and were immunoblotted overnight with the indicated antibodies. For measurements of cell viability, in quadruplicate for each condition, 150,000 cells (100 μL of 1.5 million cells/mL) were plated in Nunc™ MicroWell™ 96-Well Optical-Bottom Plates with Polymer Base (Fisher Scientific). Compounds, FASL and STS were used at the same concentrations indicated above with a 30 minute pre-incubation with compound, followed by 6 hours with either STS or FASL or DMSO. Cell viability was measured with CellTiter-Glo® Luminescent Cell Viability Assay (Promega) and was read on a Biotech Synergy 4 plate reader.

pro-CASP10, sequence (Q92851 220-521): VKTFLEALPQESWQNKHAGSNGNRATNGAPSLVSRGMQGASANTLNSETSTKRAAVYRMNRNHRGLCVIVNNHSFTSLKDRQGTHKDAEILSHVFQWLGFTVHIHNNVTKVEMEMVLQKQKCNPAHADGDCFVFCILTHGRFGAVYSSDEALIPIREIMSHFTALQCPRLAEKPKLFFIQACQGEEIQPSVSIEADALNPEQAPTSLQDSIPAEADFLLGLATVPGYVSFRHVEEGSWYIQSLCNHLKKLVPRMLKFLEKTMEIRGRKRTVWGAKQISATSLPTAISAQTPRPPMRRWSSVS

O=C(c1ccc(N2CCOCC2)cc1)N1CCC[C@@H](N(C(=O)CCl)c2ccccc2)C1 [63-R]
IC50 (pro-CASP10): > 100000 nM | IC50 (pro-CASP8): 700 nM | FasL-induced apoptosis (primary human T cells): substantial resistance | FasL-induced apoptosis (Jurkat cells [1]; Jurkat cells, concentration series, 4 h): fully blocked | blockade of CASP8 (chemical proteomics with probe 61) (CASP8): inhibited

Ac-DEVD-CHO [reference compound]
activity of active CASP10 (substrate assay) (active CASP10): inhibited | Rho-DEVD-AOMK labeling of active CASP8 (active CASP8 [2]): blocked | CASP8 activity (substrate assay) (active CASP8 [3]): blocked

Cbz-Val-Ala-Asp-CH2F [reference compound]
STS-induced intrinsic apoptosis (Jurkat cells [4]): prevented | FasL-induced apoptosis (Jurkat cells [1]; 30 μM (VAD-FMK 100 μM), 30 min before FASL, 6 h): prevented

Reference: patent US10670605B2, “Cysteine reactive probes and uses thereof” (The Scripps Research Institute, priority 2015, dated 2020)
